Source: PMC6199744, “Development of Chemical Proteomics for the Folateome and Analysis of the Kinetoplastid Folateome” (ACS Infectious Diseases, 2018)
Like-named read-outs stand apart in the source and are kept apart here.

What was measured:
Type in all cases: binding
[1] = target: T1, HeLa cell extract proteins (Homo sapiens, UniProt P20674)
T1 construct: endogenous in cells; host or cells: HeLa cell extract

[2] = target: T2, HeLa cell extract proteins (Homo sapiens, UniProt P04406)
T2 construct: endogenous in cells; host or cells: HeLa cell extract
T2 sequence (P04406 whole entry): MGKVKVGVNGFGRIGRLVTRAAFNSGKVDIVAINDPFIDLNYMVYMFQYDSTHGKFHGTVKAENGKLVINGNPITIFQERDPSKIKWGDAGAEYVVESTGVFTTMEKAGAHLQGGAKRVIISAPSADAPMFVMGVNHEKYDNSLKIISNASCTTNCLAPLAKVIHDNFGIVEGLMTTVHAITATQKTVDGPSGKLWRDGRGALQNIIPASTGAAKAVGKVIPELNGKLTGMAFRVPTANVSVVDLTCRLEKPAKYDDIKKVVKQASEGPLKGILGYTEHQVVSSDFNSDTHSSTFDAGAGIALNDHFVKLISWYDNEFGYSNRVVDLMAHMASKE

[3] = target: T3, HeLa cell extract proteins (Homo sapiens, UniProt P15121)
T3 construct: endogenous in cells; host or cells: HeLa cell extract

[4] = target: T4, HeLa cell extract proteins (Homo sapiens, UniProt Q93074)
T4 construct: endogenous in cells; host or cells: HeLa cell extract
T4 sequence (Q93074 whole entry): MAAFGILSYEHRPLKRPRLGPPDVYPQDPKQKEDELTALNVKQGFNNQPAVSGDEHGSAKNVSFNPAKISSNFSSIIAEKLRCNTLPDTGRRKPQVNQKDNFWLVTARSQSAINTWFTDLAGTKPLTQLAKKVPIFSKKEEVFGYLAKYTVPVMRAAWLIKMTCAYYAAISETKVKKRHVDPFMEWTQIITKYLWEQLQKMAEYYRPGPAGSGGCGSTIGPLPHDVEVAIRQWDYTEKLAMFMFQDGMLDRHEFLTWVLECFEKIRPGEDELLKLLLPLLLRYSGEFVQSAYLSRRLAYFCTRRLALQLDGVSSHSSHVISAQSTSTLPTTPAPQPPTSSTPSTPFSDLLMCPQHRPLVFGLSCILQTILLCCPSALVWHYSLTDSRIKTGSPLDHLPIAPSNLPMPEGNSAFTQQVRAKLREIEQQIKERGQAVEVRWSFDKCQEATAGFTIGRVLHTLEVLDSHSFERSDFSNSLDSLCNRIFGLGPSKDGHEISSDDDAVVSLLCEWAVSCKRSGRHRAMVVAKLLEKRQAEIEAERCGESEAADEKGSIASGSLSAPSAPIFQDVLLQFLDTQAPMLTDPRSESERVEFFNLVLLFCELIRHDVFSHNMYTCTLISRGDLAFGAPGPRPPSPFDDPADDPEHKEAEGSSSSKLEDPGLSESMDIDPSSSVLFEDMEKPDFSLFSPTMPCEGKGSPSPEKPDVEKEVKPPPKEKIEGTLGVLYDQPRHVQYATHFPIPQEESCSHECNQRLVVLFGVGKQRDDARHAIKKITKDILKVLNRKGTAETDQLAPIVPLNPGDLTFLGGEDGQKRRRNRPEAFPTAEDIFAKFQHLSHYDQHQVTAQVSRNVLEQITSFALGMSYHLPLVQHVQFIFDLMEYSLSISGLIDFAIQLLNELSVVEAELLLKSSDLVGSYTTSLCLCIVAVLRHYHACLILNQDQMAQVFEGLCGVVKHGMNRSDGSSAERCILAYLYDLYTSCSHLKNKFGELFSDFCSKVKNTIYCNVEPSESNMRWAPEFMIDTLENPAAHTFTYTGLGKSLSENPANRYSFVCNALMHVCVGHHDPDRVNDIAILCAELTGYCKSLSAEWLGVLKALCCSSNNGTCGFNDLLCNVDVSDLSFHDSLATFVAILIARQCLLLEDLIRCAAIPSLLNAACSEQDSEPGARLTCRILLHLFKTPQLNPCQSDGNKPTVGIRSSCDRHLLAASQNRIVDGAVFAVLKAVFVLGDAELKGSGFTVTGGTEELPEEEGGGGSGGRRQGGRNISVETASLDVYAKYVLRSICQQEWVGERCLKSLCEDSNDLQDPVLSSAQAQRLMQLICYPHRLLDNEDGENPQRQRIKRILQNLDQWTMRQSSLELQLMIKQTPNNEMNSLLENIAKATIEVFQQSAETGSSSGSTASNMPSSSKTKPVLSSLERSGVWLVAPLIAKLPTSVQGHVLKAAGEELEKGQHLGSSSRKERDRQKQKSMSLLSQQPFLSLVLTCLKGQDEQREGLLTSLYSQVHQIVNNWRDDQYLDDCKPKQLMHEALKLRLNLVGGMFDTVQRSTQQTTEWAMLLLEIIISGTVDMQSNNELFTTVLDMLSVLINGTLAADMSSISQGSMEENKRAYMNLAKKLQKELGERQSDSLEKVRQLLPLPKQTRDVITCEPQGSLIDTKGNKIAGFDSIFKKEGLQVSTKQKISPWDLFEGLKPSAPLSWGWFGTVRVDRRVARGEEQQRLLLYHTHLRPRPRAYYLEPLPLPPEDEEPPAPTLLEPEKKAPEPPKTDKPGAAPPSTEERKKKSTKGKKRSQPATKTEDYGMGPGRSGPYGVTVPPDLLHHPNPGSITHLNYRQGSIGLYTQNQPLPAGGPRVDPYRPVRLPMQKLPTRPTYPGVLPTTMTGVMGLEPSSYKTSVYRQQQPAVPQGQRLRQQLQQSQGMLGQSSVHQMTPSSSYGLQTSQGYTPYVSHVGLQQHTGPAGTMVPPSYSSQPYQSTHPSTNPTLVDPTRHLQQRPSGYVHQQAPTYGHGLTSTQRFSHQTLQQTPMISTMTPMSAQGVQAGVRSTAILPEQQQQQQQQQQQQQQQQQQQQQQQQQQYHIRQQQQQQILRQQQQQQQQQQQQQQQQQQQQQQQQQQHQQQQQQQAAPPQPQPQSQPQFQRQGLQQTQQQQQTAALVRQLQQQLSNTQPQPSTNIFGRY

[5] = target: T5, HeLa cell extract proteins (Homo sapiens, UniProt P29401)
T5 construct: endogenous in cells; host or cells: HeLa cell extract
T5 sequence (P29401 1-623): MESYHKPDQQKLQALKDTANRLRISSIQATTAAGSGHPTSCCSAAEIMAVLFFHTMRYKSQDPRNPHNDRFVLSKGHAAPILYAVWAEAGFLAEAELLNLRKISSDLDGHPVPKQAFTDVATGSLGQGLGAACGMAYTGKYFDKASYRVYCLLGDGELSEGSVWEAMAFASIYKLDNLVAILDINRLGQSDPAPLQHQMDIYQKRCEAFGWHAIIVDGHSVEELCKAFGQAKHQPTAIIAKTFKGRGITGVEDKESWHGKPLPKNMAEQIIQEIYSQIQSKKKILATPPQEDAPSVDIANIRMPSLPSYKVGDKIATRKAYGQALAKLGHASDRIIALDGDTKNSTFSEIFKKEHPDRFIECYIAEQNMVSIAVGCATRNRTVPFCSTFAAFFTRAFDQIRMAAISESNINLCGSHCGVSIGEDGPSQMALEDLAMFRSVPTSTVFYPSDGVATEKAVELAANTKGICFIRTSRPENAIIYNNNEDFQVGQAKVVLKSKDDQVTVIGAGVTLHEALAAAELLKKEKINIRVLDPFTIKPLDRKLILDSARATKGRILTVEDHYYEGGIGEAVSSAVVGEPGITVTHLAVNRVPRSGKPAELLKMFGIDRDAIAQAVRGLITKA

[6] = target: T6, HeLa cell extract proteins (Homo sapiens, UniProt P28072)
T6 construct: endogenous in cells; host or cells: HeLa cell extract
T6 sequence (P28072 1-239): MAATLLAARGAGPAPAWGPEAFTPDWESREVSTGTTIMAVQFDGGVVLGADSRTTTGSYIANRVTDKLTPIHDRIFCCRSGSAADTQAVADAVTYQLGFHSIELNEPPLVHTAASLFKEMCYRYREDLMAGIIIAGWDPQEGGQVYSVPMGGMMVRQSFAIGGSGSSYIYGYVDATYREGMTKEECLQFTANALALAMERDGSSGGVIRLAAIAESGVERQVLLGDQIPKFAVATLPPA

[7] = target: T7, HeLa cell extract proteins (Homo sapiens, UniProt Q15067)
T7 construct: endogenous in cells; host or cells: HeLa cell extract
T7 sequence (Q15067 1-660): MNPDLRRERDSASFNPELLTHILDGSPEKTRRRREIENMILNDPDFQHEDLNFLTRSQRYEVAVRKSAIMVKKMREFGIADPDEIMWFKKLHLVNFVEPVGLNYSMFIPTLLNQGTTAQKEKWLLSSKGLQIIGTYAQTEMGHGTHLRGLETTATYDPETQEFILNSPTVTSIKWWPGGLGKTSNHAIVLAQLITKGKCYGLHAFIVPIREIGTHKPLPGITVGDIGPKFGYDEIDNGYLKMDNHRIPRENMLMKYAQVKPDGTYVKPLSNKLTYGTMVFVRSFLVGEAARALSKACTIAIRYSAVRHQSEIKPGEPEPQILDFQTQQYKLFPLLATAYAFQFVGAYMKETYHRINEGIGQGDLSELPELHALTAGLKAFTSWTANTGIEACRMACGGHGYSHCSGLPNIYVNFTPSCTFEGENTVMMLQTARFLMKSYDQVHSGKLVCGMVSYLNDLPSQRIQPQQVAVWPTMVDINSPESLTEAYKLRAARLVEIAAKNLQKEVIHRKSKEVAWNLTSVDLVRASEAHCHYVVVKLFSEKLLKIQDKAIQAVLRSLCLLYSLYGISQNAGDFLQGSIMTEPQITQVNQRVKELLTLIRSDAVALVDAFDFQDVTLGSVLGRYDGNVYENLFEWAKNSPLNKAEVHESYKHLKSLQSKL

[8] = target: T8, HeLa cell extract proteins (Homo sapiens, UniProt Q96CN7)
T8 construct: endogenous in cells; host or cells: HeLa cell extract
T8 sequence (Q96CN7 1-298): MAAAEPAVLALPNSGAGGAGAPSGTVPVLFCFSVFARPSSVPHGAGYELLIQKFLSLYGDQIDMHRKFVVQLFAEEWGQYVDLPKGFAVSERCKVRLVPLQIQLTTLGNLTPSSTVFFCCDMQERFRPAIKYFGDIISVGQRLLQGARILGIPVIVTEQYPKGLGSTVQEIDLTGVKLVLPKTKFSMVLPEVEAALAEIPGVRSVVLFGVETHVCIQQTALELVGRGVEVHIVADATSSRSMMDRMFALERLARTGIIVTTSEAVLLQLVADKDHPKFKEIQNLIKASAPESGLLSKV

[9] = target: T9, HeLa cell extract proteins (Homo sapiens, UniProt O14818)
T9 construct: endogenous in cells; host or cells: HeLa cell extract
T9 sequence (O14818 1-248): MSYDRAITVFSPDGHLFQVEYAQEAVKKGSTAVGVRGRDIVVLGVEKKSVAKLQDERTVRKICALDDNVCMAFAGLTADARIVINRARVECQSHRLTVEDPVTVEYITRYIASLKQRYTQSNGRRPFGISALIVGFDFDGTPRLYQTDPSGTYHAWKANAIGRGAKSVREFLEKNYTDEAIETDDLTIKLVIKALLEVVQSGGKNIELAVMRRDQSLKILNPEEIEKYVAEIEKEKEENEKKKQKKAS

[10] = HeLa, protein G3P1_HUMAN (GLYCERALDEHYDE-3-PHOSPHATE DEHYDROGENASE, MUSCLE.)
[11] = HeLa, protein GAPDH (39 KDA PROTEIN.)

T1 sequence (P20674 42-150): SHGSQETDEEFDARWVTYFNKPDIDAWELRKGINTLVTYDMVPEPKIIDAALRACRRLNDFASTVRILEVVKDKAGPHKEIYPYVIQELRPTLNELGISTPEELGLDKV

Compound | fold changes relative to vehicle control ([1]; HeLa, captured protein COX5A) | fold changes relative to vehicle control ([2]; protein GAPDH, HeLa) | fold changes relative to vehicle control ([3]; HeLa, protein AKR1B1) | fold changes relative to vehicle control ([4]; HeLa, protein MED12) | fold changes relative to vehicle control ([5]; HeLa, protein TKT) | fold changes relative to vehicle control ([6]; HeLa, protein PSMB6) | fold changes relative to vehicle control ([7]; HeLa, protein ACOX1) | fold changes relative to vehicle control ([8]; HeLa, captured protein ISOC1) | fold changes relative to vehicle control ([9]; HeLa, captured protein PSMA7) | fold changes relative to vehicle control ([1]; captured protein COX5A, HeLa) | fold changes relative to vehicle control [2, 10] | fold changes relative to vehicle control [2, 11] | fold changes relative to vehicle control ([3]; protein AKR1B1, HeLa) | fold changes relative to vehicle control ([4]; captured protein MED12, HeLa) | fold changes relative to vehicle control ([5]; protein TKT, HeLa) | fold changes relative to vehicle control ([6]; protein PSMB6, HeLa) | fold changes relative to vehicle control ([8]; protein ISOC1, HeLa) | fold changes relative to vehicle control ([9]; protein PSMA7, HeLa) | other results
Nc1nc2c(c(=O)[nH]1)N(C=O)C(CNc1ccc(C(=O)N[C@@H](CCC(=O)O)C(=O)O)cc1)CN2 (stereo partly drawn) [LEU, leucovorin] | 1.23 | 1.01 | 1.1 | 1.14 | 1.12 | 1.01 | 1 | 1.09 | 1.08 |  |  |  |  |  |  |  |  |  | 
Nc1nc2[nH]cc(CCc3ccc(C(=O)N[C@@H](CCC(=O)O)C(=O)O)cc3)c2c(=O)[nH]1 [PTX, pemetrexed] |  |  |  |  |  |  |  |  |  |  |  |  |  |  |  |  |  |  | fold changes relative to vehicle control [1]: 1.5; fold changes relative to vehicle control [2]: 1.14; fold changes relative to vehicle control [3]: 1.22; fold changes relative to vehicle control [4]: 1; fold changes relative to vehicle control [5]: 1.2; fold changes relative to vehicle control [6]: 1.1; fold changes relative to vehicle control [7]: 0.95; fold changes relative to vehicle control [8]: 0.99; fold changes relative to vehicle control [9]: 1.03
CCCCCCOc1ccc(Cc2cnc(N)nc2N)cc1 [compound 1] |  |  |  |  |  |  | 0.98 |  |  | 0.98 | 1.39 fold | 1.52 fold | 1.12 | 1.01 | 1.41 | 1.31 | 1.08 | 1.13 | 
CCCCCCOc1cccc(Cc2cnc(N)nc2N)c1 [compound 2] |  |  |  |  |  |  | 0.92 |  |  | 0.91 | 2.61 fold | 2.46 fold | 1.7 | 0.94 | 2.08 | 1.36 | 1.01 | 1.3 | 
Nc1nc2cccc(-c3ccccc3)c2n1Cc1ccc(Cl)c(Cl)c1 [compound 3] |  |  |  |  |  |  | 1.33 |  |  | 1.18 | 0.84 fold | 0.95 fold | 0.8 | 1.14 | 0.9 | 1.09 | 1.03 | 1.07 | 
NCCOCCOCC(=O)Nc1nc2ncc(CNc3ccc(C(=O)NC(CCC(=O)O)C(=O)O)cc3)nc2c(=O)[nH]1 (stereo not drawn) [compound 6] | 1.87 | 1.35 | 1.2 | 1.21 | 1.26 | 1.29 | 0.99 | 1.11 | 1.02 |  |  |  |  |  |  |  |  |  | 
NCCCNc1ccc(C(=O)NC(CCC(=O)O)C(=O)O)cc1 (stereo not drawn) [compound 7] | 1.63 | 0.97 | 0.95 | 1.21 | 0.99 | 1.02 | 0.94 | 1.04 | 0.93 |  |  |  |  |  |  |  |  |  | 
